# What was measured:
# A375 [1] = assay: In vitro combination assay (combination index, Chou-Talalay, MTS) on A375; assay type: cell-based, human; settings: +Vemurafenib; A375 cell line (Tables 3, 4)
# Text: (§2) Cell proliferation viability was investigated using MTS or SRB assay as described previously. An in vitro study of the combination of vemurafenib and the tubulin inhibitors was designed and conducted using CalcuSyn software (Biosoft, Ferguson, Mo.) with five duplicates of each set of treatment. Drug concentrations were selected based on the IC50 value of each drug tested from a pilot study.
# A375RF21 [2] = assay: In vitro combination assay (combination index) on A375RF21; assay type: cell-based, human; settings: Treatment + Vemurafenib
# Text: as §2
# A375RF21 [3] = assay: Annexin V/propidium iodide apoptosis detection in A375RF21 cells; assay type: cell-based, human; settings: 48 hours incubation
# A375RF21 [4] = assay: Cell cycle analysis (flow cytometry) in A375RF21 cells; assay type: cell-based, human; settings: resistant A375RF21 cell line
# Protocol: (§1) Flow cytometry analysis was performed as described before (Wang Z, Chen J, Wang J, et al. “Novel tubulin polymerization inhibitors overcome multidrug resistance and reduce melanoma lung metastasis.” Pharm. Res. (2012) 29: 3040-3052). To determine cell cycle distributions in the G2 and M phases (FIG. 23), cells were harvested with trypsin, stained using antiphospho-histone H3-AlexaFluor® 488 antibody on ice for one hour in the dark, followed by stained using PI/RNase solution for 30 minutes at room temperature in the dark per the manufacturer's instructions (#FCCH025103, EMD Millipore Corporation, Ballerica, Mass.). Data were further processed and graphs were prepared using the Modfit 2.0 program (Verity Software House, Topsham, Me.).
# A375 [5] = assay: Cell cycle analysis (flow cytometry) in parental A375 cells; assay type: cell-based, human
# Protocol: as §1
# A375RF21 xenograft = assay: A375RF21 tumor xenograft in nude mice; assay type: in vivo
# Protocol: Seven to eight week old male nude mice were purchased from Charles River Laboratories International, Inc. (Wilmington, Mass.). A375RF21 cells were suspended in ice-cold phenol red-free and FBS-free DMEM medium without FBS and mixed with high concentration Matrigel (BD Biosciences, San Joes, Calif.) at ratio of 1:1 right before use. 100 μL of this mixture containing 3×10^6 cells were injected subcutaneously (s.c.) to the left-side dorsal flank of each mouse. One week after the inoculation, the mice were randomized into four groups (n=7 for the initial low dose and n=5 for subsequent high dose drug combination) and the treatments started. […] Vehicle control group was i.p. injected with same volume (100 μL) of PEG300 at the same dosing frequency. At the end of the experiments, mice were euthanized and tumor tissue were isolated, weighted and then fixed in 10% buffered formalin phosphate solution.
# Tumor volume and body weight of each mouse were evaluated three times a week.
# HL60 tumors = assay: HL60 leukemia xenograft in nude mice; assay type: in vivo; settings: vincristine 1 mg/kg intraperitoneal injection once a week
# Protocol: The dosing schedule was once a week for two weeks. Vincristine (1 mg/mL) was administrated via intraperitoneal injection once a week.
# [6] = Pharmacokinetic study in Sprague-Dawley rats; settings: rat
# [7] = Pharmacokinetic study in ICR mice; settings: mouse; for MousePK_IV10mgk_Cl / MousePK_IV10mgk_V: IV 10 mg/kg
# Protocol: All compounds (10 mg/kg) were dissolved in DMSO/PEG300 (1/9) and administered by a single intravenously (i.v.) injection (50 μL) into the tail vein.
# [8] = Aqueous solubility (Multiscreen Solubility Filter Plate, LC-MS/MS); assay type: physicochemical; settings: aqueous
# Protocol: The solubility of drugs was determined by Multiscreen Solubility Filter Plate (Millipore Corporate, Billerica, Mass.) coupled with LC-MS/MS.
# in vitro = settings: human, liver microsomes, pH 7.4
# [9] = vemurafenib 30 mg/kg, 12da 15 mg/kg, n=5
structure (smiles),measurement,setting,value
COc1cccc2c1C(=O)c1c(O)c3c(c(O)c1C2=O)C[C@@](O)(C(=O)CO)C[C@@H]3O[C@H]1C[C@H](N)[C@H](O)[C@H](C)O1 [Doxorubicin],CI value EC75,A375 [1],11.6
NC1(c2ccc(-c3nc4ccn5c(=O)[nH]nc5c4cc3-c3ccccc3)cc2)CCC1 [MK2206],CI value EC75,A375 [1],0.67
CCN(CC)CCNC(=O)c1c(C)[nH]c(/C=C2\C(=O)Nc3ccc(F)cc32)c1C [Sunitinib],CI ED75,A375RF21 [2],0.91
same,CI ED90,A375RF21 [2],0.93
CC(=O)Nc1cccc(-n2c(=O)n(C3CC3)c(=O)c3c(Nc4ccc(I)cc4F)n(C)c(=O)c(C)c32)c1 [Trametinib],CI ED75,A375RF21 [2],0.90
same,CI ED90,A375RF21 [2],0.90
"CCCS(=O)(=O)Nc1ccc(F)c(C(=O)c2c[nH]c3ncc(-c4ccc(Cl)cc4)cc23)c1F [Vemurafenib, reference compound]","counted cell apoptosis or death (percentage sum of Q1, Q2 and Q4)",A375RF21 [3],11.9±3.5%
same,concentration of vemurafenib to produce G0/G1 cell cycle arrest,A375RF21 [4],≥ 30 µM
same,concentration of vemurafenib to produce G0/G1 cell cycle arrest,A375 [5],less than 1 μM
same,TGI (%),"A375RF21 xenograft; 12da 10 mg/kg, vemurafenib 20 mg/kg, i.p. once per day 5 days per week, after 3 weeks of treatment, n=7",22.65 ± 8.31%
same,TGI (%),"A375RF21 xenograft; 12da 10 mg/kg, vemurafenib 20 mg/kg, i.p. once per day 5 days per week, after 3 weeks of treatment, n=7, listed as vemurafenib",22.65%
same,Tumor weight (gram),"A375RF21 xenograft; 12da 10 mg/kg, vemurafenib 20 mg/kg, after 3 weeks of treatment, n=7",2.05 ± 0.14 gram
same,TGI (%),A375RF21 xenograft; [9],28.10 ± 4.81%
same,Tumor weight (gram),A375RF21 xenograft; [9],1.05 ± 0.21 gram
same,TGI (%),"A375RF21 xenograft; vemurafenib 30 mg/kg, 12da 15 mg/kg, n=5, listed as vemurafenib",28.10%
CC[C@]1(O)C[C@@H]2CN(CCc3c([nH]c4ccccc34)[C@@](C(=O)OC)(c3cc4c(cc3OC)N(C)[C@H]3[C@@](O)(C(=O)OC)[C@H](OC(C)=O)[C@]5(CC)C=CCN6CC[C@]43[C@@H]65)C2)C1 [Vinblastine],CI value EC75,A375 [1],0.78
CC[C@]1(O)C[C@H]2CN(CCc3c([nH]c4ccccc34)[C@@](C(=O)OC)(c3cc4c(cc3OC)N(C=O)[C@H]3[C@@](O)(C(=O)OC)[C@H](OC(C)=O)[C@]5(CC)C=CCN6CC[C@]43[C@@H]65)C2)C1 [Vincristine],tumor growth inhibition (TGI),HL60 tumors,84%
COc1cc(C(=O)c2c[nH]c(-c3ccc(Cl)cc3)n2)cc(OC)c1OC [drawing 51],RatPK_IV5mgk_Cl,[6]; IV 5 mg/kg,16 mL/min/kg
same,RatPK_IV5mgk_V,[6]; IV 5 mg/kg,1.9 L/kg
same,RatPK_PO10mgk_AUC,[6]; PO 10 mg/kg,218 µg·min/mL
same,RatPK_PO10mgk_Cmax,[6]; PO 10 mg/kg,1109 ng/mL
same,MousePK_IV10mgk_Cl,[7],61 mL/min/kg
same,MousePK_IV10mgk_V,[7],4 L/kg
same,MousePK_PO20mgk_AUC,[7]; PO 20 mg/kg,201 µg·min/mL
same,MousePK_PO20mgk_Cmax,[7]; PO 20 mg/kg,2592 ng/mL
same,Solubility,[8],12 µg/mL
COc1cc(C(=O)c2csc(-c3ccccc3)n2)cc(OC)c1OC [drawing 53],half-life at 0.5 μM,in vitro,17 min
same,RatPK_IV5mgk_V,"[6]; IV, 2.5mpk",4.9 (2.5mpk) L/kg
same,RatPK_PO10mgk_AUC,[6]; PO 10 mg/kg,37 µg·min/mL
same,RatPK_Bioavailability,[6]; oral,3.3 % F
same,MousePK_IV10mgk_Cl,[7],130 mL/min/kg
same,MousePK_IV10mgk_V,[7],4.9 L/kg
